Source: BindingDB's records for doi:10.1016/j.bmc.2020.115818 (Taisho Pharmaceutical, 2020)

Assay: Inhibition of F protein in Respiratory syncytial virus A2 infected in HepG2 cells assessed as reduction in virus-induced cytopathic effect incubated for 4 days by XTT assay

Cc1ccc2c(c1)C(=O)N1CCCC[C@H]1c1cc3nc([C@H]4C[C@H](O)C4)cc(n3n1)N(C)CCNC(=O)CO2
EC50: 0.77 nM
